Measured values reported in patent US10550112B2, “Pyrimidines as EGFR inhibitors and methods of treating disorders” (Dana-Farber Cancer Institute, Inc., priority 2015, dated 2020).

How the values were obtained:
Type in all cases: cell-based, Murine
[1] = target: EGFR wild type Ba/F3 cell line (Homo sapiens, UniProt P00533, cells depend on it, form not given); assay: Ba/F3 cell proliferation MTS assay, EGFR wild type; conditions: 72 hours
[2] = target: EGFR InsGY Ba/F3 cell line (Homo sapiens, UniProt P00533, DELINS770-770GY, cells depend on it); assay: Ba/F3 cell proliferation MTS assay, EGFR InsGY; conditions: EGFR InsGY (D770delinsGY) Ba/F3 cells, 72 hours
Chain of EGFR InsGY Ba/F3 cell line (P00533 with tags, fused parts or gaps DELINS770-770GY): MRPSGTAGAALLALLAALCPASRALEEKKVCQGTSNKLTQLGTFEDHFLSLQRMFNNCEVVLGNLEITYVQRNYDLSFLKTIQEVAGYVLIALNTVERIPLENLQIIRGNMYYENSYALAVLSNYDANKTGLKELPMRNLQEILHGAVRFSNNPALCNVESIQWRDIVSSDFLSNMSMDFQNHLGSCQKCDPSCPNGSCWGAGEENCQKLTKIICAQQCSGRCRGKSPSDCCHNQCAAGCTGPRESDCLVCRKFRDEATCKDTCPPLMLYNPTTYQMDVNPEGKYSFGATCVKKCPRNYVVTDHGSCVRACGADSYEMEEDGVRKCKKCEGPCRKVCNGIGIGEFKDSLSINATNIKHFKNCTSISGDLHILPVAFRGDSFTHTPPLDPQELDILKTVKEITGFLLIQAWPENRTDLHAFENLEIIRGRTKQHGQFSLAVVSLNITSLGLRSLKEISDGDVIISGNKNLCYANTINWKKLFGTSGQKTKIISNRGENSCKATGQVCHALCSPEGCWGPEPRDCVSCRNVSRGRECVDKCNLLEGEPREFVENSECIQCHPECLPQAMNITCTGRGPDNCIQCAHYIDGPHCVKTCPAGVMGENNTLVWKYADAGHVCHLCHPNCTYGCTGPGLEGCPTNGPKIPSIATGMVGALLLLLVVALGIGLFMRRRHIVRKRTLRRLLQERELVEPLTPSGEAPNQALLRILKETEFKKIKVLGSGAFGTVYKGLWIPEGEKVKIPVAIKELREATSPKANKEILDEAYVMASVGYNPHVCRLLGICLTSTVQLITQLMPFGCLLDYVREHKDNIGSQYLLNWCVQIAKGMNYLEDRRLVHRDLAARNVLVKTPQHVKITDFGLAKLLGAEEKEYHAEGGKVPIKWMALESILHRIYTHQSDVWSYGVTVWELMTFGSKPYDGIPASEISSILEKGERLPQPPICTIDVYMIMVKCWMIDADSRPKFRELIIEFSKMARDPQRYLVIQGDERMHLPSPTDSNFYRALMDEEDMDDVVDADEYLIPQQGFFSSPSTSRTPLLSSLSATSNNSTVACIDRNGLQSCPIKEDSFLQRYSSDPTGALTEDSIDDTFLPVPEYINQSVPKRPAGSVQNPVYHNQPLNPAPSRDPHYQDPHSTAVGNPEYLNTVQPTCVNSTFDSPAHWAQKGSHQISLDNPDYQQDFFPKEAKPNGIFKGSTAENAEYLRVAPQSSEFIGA
Procedure: (§1) Different EGFR exon 20 insertion mutations were introduced via site directed mutagenesis into full length EGFR using the Quick Change Site-Directed Mutagenesis kit (Stratagene; La Jolla, Calif.) according to the manufacturer's instructions. All constructs were confirmed by DNA sequencing. The constructs were shuttled into the retroviral vector JP1540 using the BD Creator™ System (BD Biosciences). […] Stable clones were obtained by selection in puromycin (2 μg/ml) and growth in IL-3 free media.
(§2) Murine Ba/F3 cells engineered to express mutant and wild type EGFR or HER2 protein were used to perform single drug screens. Cell viability was assessed after 72 hours of compound exposure using the colorimetric cell proliferation MTS assay kit (Promega).
(§3) The curves were fitted using a non-linear regression model with a sigmoidal dose response.

[3] = target: EGFR InsSVD Ba/F3 cell line (Homo sapiens, UniProt P00533, DUP768-770, cells depend on it); assay: Ba/F3 cell proliferation MTS assay, EGFR InsSVD; conditions: EGFR InsSVD (D770_N771insSVD) Ba/F3 cells, 72 hours
Chain of EGFR InsSVD Ba/F3 cell line (P00533 with tags, fused parts or gaps DUP768-770): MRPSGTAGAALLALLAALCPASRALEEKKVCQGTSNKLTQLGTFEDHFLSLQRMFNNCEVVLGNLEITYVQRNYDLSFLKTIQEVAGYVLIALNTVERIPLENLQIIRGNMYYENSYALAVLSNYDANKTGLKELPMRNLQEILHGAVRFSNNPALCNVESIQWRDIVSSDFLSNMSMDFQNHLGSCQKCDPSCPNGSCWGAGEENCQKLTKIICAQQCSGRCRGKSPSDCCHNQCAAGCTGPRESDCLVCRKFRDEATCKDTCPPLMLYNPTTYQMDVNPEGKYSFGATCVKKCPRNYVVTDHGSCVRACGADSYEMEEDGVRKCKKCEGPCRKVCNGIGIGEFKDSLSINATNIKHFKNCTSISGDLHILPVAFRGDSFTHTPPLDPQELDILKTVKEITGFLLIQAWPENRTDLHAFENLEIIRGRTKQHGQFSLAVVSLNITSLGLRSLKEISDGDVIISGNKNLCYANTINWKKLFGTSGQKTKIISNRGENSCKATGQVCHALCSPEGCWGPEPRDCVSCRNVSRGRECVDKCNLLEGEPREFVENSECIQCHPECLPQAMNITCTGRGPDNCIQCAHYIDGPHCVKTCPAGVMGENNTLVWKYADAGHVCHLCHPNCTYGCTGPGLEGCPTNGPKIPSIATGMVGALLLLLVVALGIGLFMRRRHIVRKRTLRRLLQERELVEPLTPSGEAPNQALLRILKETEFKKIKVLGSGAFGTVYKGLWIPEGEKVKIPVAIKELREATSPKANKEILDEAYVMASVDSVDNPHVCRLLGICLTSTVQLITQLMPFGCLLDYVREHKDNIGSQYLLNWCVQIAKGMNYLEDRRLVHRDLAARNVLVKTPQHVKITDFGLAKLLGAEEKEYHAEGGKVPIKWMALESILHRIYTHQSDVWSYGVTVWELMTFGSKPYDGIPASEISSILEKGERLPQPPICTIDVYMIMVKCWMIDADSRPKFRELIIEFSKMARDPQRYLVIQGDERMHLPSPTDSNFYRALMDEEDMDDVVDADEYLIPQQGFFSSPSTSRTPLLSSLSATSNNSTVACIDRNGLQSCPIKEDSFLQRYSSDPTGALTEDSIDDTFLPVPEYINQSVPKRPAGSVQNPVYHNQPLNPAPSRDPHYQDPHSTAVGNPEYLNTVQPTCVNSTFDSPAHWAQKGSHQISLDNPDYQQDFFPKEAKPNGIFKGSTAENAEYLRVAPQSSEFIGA
Procedure: as §1, §2, §3

[4] = target: HER2 wild type Ba/F3 cell line (Homo sapiens, UniProt P04626); assay: Ba/F3 cell proliferation MTS assay, HER2 wild type; conditions: HER2 wild type Ba/F3 cells, 72 hours
Procedure: as §2, §3

[5] = target: HER2 InsYVMA Ba/F3 cell line (Homo sapiens, UniProt P04626, DUP772-775, cells depend on it); assay: Ba/F3 cell proliferation MTS assay, HER2 InsYVMA; conditions: 72 hours;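 further: murine Ba/F3 cells engineered to carry mutant HER2, viability read colorimetrically by MTS after 72 h of exposure, EC50 from sigmoidal non-linear regression of dose response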
Chain of HER2 InsYVMA Ba/F3 cell line (P04626 with tags, fused parts or gaps DUP772-775): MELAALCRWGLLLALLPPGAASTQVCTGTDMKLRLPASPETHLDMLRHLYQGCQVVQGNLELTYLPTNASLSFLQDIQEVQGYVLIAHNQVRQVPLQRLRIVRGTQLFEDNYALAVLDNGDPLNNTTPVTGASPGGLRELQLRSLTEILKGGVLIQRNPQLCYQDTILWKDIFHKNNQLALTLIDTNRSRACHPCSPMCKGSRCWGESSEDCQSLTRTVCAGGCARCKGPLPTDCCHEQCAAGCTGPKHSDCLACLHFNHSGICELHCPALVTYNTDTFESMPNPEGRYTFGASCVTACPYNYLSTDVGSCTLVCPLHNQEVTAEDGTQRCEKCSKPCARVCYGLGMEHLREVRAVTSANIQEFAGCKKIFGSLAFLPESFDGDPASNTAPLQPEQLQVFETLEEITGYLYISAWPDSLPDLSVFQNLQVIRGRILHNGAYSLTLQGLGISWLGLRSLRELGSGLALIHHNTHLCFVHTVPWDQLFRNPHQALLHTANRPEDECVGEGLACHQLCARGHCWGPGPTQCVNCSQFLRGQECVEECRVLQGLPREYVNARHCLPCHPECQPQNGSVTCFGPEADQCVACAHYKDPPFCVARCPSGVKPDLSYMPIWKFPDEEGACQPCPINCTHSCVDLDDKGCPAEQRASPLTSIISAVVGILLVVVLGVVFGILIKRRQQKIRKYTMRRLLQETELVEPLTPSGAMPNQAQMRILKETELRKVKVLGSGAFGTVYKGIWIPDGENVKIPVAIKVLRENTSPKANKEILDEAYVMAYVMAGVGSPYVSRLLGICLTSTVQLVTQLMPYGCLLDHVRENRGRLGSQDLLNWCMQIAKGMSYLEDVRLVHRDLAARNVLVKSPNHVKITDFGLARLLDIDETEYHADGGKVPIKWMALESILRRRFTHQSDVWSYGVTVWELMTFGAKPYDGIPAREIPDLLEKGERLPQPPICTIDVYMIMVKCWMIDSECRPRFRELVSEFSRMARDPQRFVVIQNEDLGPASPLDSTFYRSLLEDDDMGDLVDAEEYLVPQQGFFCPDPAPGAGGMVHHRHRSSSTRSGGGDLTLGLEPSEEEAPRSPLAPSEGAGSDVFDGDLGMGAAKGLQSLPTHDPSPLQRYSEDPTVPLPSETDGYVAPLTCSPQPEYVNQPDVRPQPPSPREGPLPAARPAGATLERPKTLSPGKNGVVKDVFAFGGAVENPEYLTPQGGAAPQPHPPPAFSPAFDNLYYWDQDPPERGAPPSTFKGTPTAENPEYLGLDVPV
Procedure: as §2, §3

Chain of EGFR wild type Ba/F3 cell line (P00533 whole entry, stated change not applied): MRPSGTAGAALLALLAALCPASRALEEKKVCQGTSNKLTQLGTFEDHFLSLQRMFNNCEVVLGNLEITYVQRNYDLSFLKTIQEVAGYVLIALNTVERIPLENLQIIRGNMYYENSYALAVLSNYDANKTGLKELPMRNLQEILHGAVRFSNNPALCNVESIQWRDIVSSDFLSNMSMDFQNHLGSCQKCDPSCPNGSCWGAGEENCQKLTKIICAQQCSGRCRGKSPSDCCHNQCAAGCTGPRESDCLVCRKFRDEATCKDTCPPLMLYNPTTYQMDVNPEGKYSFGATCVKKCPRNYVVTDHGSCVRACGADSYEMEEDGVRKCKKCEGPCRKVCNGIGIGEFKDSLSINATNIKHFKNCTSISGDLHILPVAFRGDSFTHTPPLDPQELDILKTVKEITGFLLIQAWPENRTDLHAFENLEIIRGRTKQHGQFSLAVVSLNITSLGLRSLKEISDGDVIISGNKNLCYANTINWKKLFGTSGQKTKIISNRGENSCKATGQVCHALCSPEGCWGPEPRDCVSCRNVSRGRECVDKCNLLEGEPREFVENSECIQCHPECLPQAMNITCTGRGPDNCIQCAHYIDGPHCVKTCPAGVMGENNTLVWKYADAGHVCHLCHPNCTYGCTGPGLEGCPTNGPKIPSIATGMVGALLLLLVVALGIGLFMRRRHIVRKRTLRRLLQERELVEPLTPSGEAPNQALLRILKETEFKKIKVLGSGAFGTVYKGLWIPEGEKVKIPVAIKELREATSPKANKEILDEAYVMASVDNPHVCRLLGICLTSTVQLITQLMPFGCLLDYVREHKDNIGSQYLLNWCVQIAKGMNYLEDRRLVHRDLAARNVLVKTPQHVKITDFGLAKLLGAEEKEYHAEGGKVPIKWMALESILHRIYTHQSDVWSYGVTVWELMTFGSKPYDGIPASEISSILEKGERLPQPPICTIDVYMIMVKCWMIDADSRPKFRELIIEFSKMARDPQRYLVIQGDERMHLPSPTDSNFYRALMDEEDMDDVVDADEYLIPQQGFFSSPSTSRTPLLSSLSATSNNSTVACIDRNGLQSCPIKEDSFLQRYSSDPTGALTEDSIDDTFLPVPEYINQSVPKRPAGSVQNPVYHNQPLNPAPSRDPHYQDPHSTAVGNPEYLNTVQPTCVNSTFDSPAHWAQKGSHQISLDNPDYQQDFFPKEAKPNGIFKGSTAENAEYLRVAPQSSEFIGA

C=CC(=O)Nc1cccc(N(C(=O)OCc2ccc(F)cc2)c2ccnc(Nc3cnn(C)c3C(F)(F)F)n2)c1 [Compound I-23, 4-fluorobenzyl (3-acrylamidophenyl)(2-((1-methyl-5-(trifluoromethyl)-1H-pyrazol-4-yl)amino)pyrimidin-4-yl)carbamate]
EC50 [1]: < 100 nM
EC50 [2]: 100 to 500 nM
EC50 [3]: 100 to 500 nM
EC50 [4]: < 100 nM
EC50 [5]: 100 to 500 nM

Cn1cc(Nc2nccc(N(C(=O)OCc3ccc(F)cc3)c3cccc(NC(=O)/C=C/CN4CCC(O)CC4)c3)n2)cn1 [Compound I-25, 4-fluorobenzyl (E)-(3-(4-(4-hydroxypiperidin-1-yl)but-2-enamido)phenyl)(2-((1-methyl-1H-pyrazol-4-yl)amino)pyrimidin-4-yl)carbamate]
EC50 [1]: 100 to 500 nM
EC50 [4]: 100 to 500 nM
EC50 [5]: > 1000 nM

C=CC(=O)Nc1cccc(N(C(=O)OCc2csc3ccccc23)c2ccnc(Nc3ccn(C)n3)n2)c1 [Compound I-18, benzo[b]thiophen-3-ylmethyl (3-acrylamidophenyl)(2-((1-methyl-1H-pyrazol-3-yl)amino)pyrimidin-4-yl)carbamate]
EC50 [1]: > 1000 nM
EC50 [2]: > 1000 nM
EC50 [4]: > 1000 nM

C=CC(=O)Nc1cccc(N(C(=O)OCc2ccc(F)cc2)c2ccnc(Nc3cnn(C4CCN(C)CC4)c3)n2)c1 [Compound I-30, 4-fluorobenzyl (3-acrylamidophenyl)(2-((1-(1-methylpiperidin-4-yl)-1H-pyrazol-4-yl)amino)pyrimidin-4-yl)carbamate]
EC50 [1]: < 100 nM
EC50 [2]: < 100 nM
EC50 [3]: < 100 nM
EC50 [4]: < 100 nM
EC50 [5]: < 100 nM

C=CC(=O)Nc1cccc(N(C(=O)OCc2cc3ccccc3s2)c2ccnc(Nc3ccn(C)n3)n2)c1 [Compound I-6, benzo[b]thiophen-2-ylmethyl (3-acrylamidophenyl)(2-((1-methyl-1H-pyrazol-3-yl)amino)pyrimidin-4-yl)carbamate]
EC50 [1]: 500 to 1000 nM
EC50 [2]: 100 to 500 nM
EC50 [3]: 500 to 1000 nM
EC50 [4]: 500 to 1000 nM
EC50 [5]: > 1000 nM

Cn1cc(Nc2nccc(N(C(=O)OCc3ccc(F)cc3)c3cccc(NC(=O)/C=C/CN4CCCCCC4)c3)n2)cn1 [Compound I-27, 4-fluorobenzyl (E)-(3-(4-(azepan-1-yl)but-2-enamido)phenyl)(2-((1-methyl-1H-pyrazol-4-yl)amino)pyrimidin-4-yl)carbamate]
EC50 [1]: < 100 nM
EC50 [2]: 500 to 1000 nM
EC50 [3]: 500 to 1000 nM
EC50 [4]: < 100 nM
EC50 [5]: < 100 nM

CN(C)C/C=C/C(=O)Nc1cccc(N(C(=O)OCc2ccc(F)cc2)c2ccnc(Nc3cnn(C)c3)n2)c1 [Compound I-28, 4-fluorobenzyl (E)-(3-(4-(dimethylamino)but-2-enamido)phenyl)(2-((1-methyl-1H-pyrazol-4-yl)amino)pyrimidin-4-yl)carbamate]
EC50 [1]: < 100 nM
EC50 [2]: 500 to 1000 nM
EC50 [3]: > 1000 nM
EC50 [4]: < 100 nM
EC50 [5]: < 100 nM

C=CC(=O)Nc1cccc(N(C(=O)OCc2ccc(F)cc2)c2ccnc(Nc3ccn(C)n3)n2)c1 [Compound I-4, 4-fluorobenzyl (3-acrylamidophenyl)(2-((1-methyl-1H-pyrazol-3-yl)amino)pyrimidin-4-yl)carbamate]
EC50 [1]: < 100 nM
EC50 [2]: < 100 nM
EC50 [3]: < 100 nM
EC50 [4]: < 100 nM
EC50 [5]: < 100 nM

Cn1cc(Nc2nccc(N(C(=O)OCc3ccc(F)cc3)c3cccc(NC(=O)/C=C/CN4CCCCC4)c3)n2)cn1 [Compound I-24, 4-fluorobenzyl (E)-(2-((1-methyl-1H-pyrazol-4-yl)amino)pyrimidin-4-yl)(3-(4-(piperidin-1-yl)but-2-enamido)phenyl)carbamate]
EC50 [1]: < 100 nM
EC50 [2]: 100 to 500 nM
EC50 [3]: 500 to 1000 nM
EC50 [4]: < 100 nM
EC50 [5]: < 100 nM

C=CC(=O)Nc1cccc(N(C(=O)OCc2ccc(F)cc2F)c2ccnc(Nc3cnn(C)c3)n2)c1 [Compound I-29, 2,4-difluorobenzyl (3-acrylamidophenyl)(2-((1-methyl-1H-pyrazol-4-yl)amino)pyrimidin-4-yl)carbamate]
EC50 [1]: < 100 nM
EC50 [2]: < 100 nM
EC50 [3]: < 100 nM
EC50 [4]: < 100 nM
EC50 [5]: < 100 nM

C=CC(=O)Nc1cccc(N(C(=O)OCc2ccc(F)cc2)c2ccnc(Nc3cnn(C)c3C)n2)c1 [Compound I-22, 4-fluorobenzyl (3-acrylamidophenyl)(2-((1,5-dimethyl-1H-pyrazol-4-yl)amino)pyrimidin-4-yl)carbamate]
EC50 [1]: < 100 nM
EC50 [2]: < 100 nM
EC50 [3]: < 100 nM
EC50 [4]: < 100 nM
EC50 [5]: < 100 nM

Cn1cc(Nc2nccc(N(C(=O)OCc3ccc(F)cc3)c3cccc(NC(=O)/C=C/CN4CCOCC4)c3)n2)cn1 [Compound I-26, 4-fluorobenzyl (E)-(2-((1-methyl-1H-pyrazol-4-yl)amino)pyrimidin-4-yl)(3-(4-morpholinobut-2-enamido)phenyl)carbamate]
EC50 [1]: < 100 nM
EC50 [2]: 100 to 500 nM
EC50 [3]: 500 to 1000 nM
EC50 [4]: < 100 nM
EC50 [5]: 100 to 500 nM

C=CC(=O)Nc1cccc(N(C(=O)OCc2ccc(F)cc2)c2ccnc(Nc3cnn(C4CCN(C)C4)c3)n2)c1 (centres unmarked) [Compound I-32, 4-fluorobenzyl (3-acrylamidophenyl)(2-((1-(1-methylpyrrolidin-3-yl)-1H-pyrazol-4-yl)amino)pyrimidin-4-yl)carbamate]
EC50 [1]: < 100 nM
EC50 [2]: < 100 nM
EC50 [3]: < 100 nM
EC50 [4]: < 100 nM
EC50 [5]: < 100 nM

C=CC(=O)Nc1cccc(N(C(=O)OCc2cccc(F)c2)c2ccnc(Nc3cnn(C)c3)n2)c1 [Compound I-3, 3-fluorobenzyl (3-acrylamidophenyl)(2-((1-methyl-1H-pyrazol-4-yl)amino)pyrimidin-4-yl)carbamate]
EC50 [1]: < 100 nM
EC50 [2]: < 100 nM
EC50 [3]: < 100 nM
EC50 [4]: < 100 nM
EC50 [5]: < 100 nM

C=CC(=O)Nc1cccc(N(C(=O)OCc2ccc(F)cc2)c2ccnc(Nc3cnn(CCN4CCOCC4)c3)n2)c1 [Compound I-20, 4-fluorobenzyl (3-acrylamidophenyl)(2-((1-(2-morpholinoethyl)-1H-pyrazol-4-yl)amino)pyrimidin-4-yl)carbamate]
EC50 [1]: < 100 nM
EC50 [2]: < 100 nM
EC50 [3]: 100 to 500 nM
EC50 [4]: < 100 nM
EC50 [5]: < 100 nM

C=CC(=O)Nc1cccc(N(C(=O)OCc2cc3ccccc3s2)c2ccnc(Nc3cnn(C)c3)n2)c1 [Compound I-7, benzo[b]thiophen-2-ylmethyl (3-acrylamidophenyl)(2-((1-methyl-1H-pyrazol-4-yl)amino)pyrimidin-4-yl)carbamate]
EC50 [1]: 100 to 500 nM
EC50 [2]: < 100 nM
EC50 [3]: 100 to 500 nM
EC50 [4]: 100 to 500 nM
EC50 [5]: 500 to 1000 nM

C=CC(=O)Nc1cccc(N(C(=O)OCc2cccc(F)c2)c2ccnc(Nc3ccn(C)n3)n2)c1 [Compound I-2, 3-fluorobenzyl (3-acrylamidophenyl)(2-((1-methyl-1H-pyrazol-3-yl)amino)pyrimidin-4-yl)carbamate]
EC50 [1]: < 100 nM
EC50 [2]: < 100 nM
EC50 [3]: < 100 nM
EC50 [4]: < 100 nM
EC50 [5]: 100 to 500 nM

C=CC(=O)Nc1cccc(N(C(=O)OCc2ccc(F)cc2)c2ccnc(Nc3cnn(CC(=O)NC)c3)n2)c1 [Compound I-31, 4-fluorobenzyl (3-acrylamidophenyl)(2-((1-(2-(methylamino)-2-oxoethyl)-1H-pyrazol-4-yl)amino)pyrimidin-4-yl)carbamate]
EC50 [1]: < 100 nM
EC50 [2]: 100 to 500 nM
EC50 [3]: 100 to 500 nM
EC50 [4]: < 100 nM
EC50 [5]: < 100 nM
